{
  "source": "patent US20070160691A1",
  "about": "“Pharmaceutical composition for treating and preventing cancer comprising cinnamoni cortex extract and zizyphi fructus extract” (KOREA RESEARCH INSTITUTE OF BIOSCIENCE AND BIOTECH, priority 2003, published 2007)",
  "key": {"[1]": {"test_system": "PARP (poly(ADP-ribose) polymerase) in SW620 colon cancer cells", "experiment": "PARP cleavage by Western blotting", "assay_type": "cell-based, human", "conditions": "10 μM and 30 μM HCA, 48 hrs, compared to DMSO, FIG. 2", "experimental": "(§1) MDA-MB-231 breast cancer cells and SW620 colon cancer cells were seeded onto 100-mm culture dishes at densities of 1×10^6 and 2×10^6 cells, respectively. After 18 hrs, the cells were treated with 10 μM and 30 μM of HCA and further cultured for 48 hrs.\n(§2) Then, to analyze PARP (poly(ADP-ribose) polymerase) cleavage by the HCA treatment, the cells were lysed using RIPA buffer (50 mM Tris-HCl, pH 7.4, 150 mM NaCl, 5 mM EDTA, 1% NP-40, 1 mM sodium vanadate, 0.5% sodium deoxycholate, and 0.05% sodium deoxysulfate). The cell lysates were centrifuged at 13,000 rpm and the supernatants were recovered. In the supernatants, protein concentrations were determined using a Bradford reagent (Bio-Rad Protein Assay, USA). Protein samples of 30 μg were separated on a 7.5% SDS-PAGE (SDS-polyacrylamide gel electrophoresis) gel. Proteins were then electro-transferred onto a PVDF membrane. The blot was blocked using 5% skim milk in TBST (50 mM Tris-HCl, pH 7.6, 150 mM NaCl, 0.1% Tween 20). Intracellular PARP was detected using a PARP-specific antibody (Cell signaling Technology, USA), a HRP (horse radish peroxidase)-conjugated secondary antibody, and a chemiluminescence POD reagent (Roche, Germany)."}, "[2]": {"test_system": "SW620 colon cancer cells", "experiment": "DNA fragmentation (apoptosis induction), agarose gel electrophoresis", "assay_type": "cell-based, human", "conditions": "10 μM and 30 μM HCA, 48 hrs, compared to DMSO, FIG. 1", "experimental": "(§3) MDA-MB-231 breast cancer cells and SW620 colon cancer cells were seeded onto 100-mm culture dishes at densities of 1×10^6 and 2×10^6 cells, respectively. After 18 hrs, the cells were treated with 10 μM and 30 μM of 2′-hydroxycinnamaldehyde(HCA) and further cultured for 48 hrs.\n(§4) Then, to analyze DNA cleavage by the HCA treatment, the cells were lysed using RIPA buffer (50 mM Tris-HCl, pH 7.4, 150 mM NaCl, 5 mM EDTA, 1% NP-40, 1 mM sodium vanadate, 0.5% sodium deoxycholate, and 0.05% sodium deoxysulfate). The cell lysates were centrifuged at 13,000 rpm. The supernatants were subjected to phenol extraction to remove proteins, and the nucleic acid layers were recovered. Potassium acetate was added to each nucleic acid layer in a final concentration of 50 mM, and an equal volume of isopropyl alcohol was added thereto to precipitate nucleic acids. The precipitated nucleic acids were washed with 80% ethanol and dried. The dried nucleic acids were dissolved in 30 μl of TE buffer, and treated with Dnase-free RNase at 37° C. for 1 hr to remove RNA.\n(§5) The resulting DNA samples were electrophoresed on a 1.5% agarose gel to investigate DNA fragmentation by HCA."}, "[3]": {"test_system": "MDA-MB-231 breast cancer cells", "experiment": "DNA fragmentation (apoptosis induction), agarose gel electrophoresis", "assay_type": "cell-based", "conditions": "MDA-MB-231 cells, 10 μM and 30 μM HCA, 48 hrs, compared to DMSO; FIG. 1", "experimental": "as §3, §4, §5"}, "[4]": {"test_system": "PARP (poly(ADP-ribose) polymerase) in MDA-MB-231 breast cancer cells", "experiment": "PARP cleavage by Western blotting", "assay_type": "cell-based", "conditions": "MDA-MB-231 cells, 10 μM and 30 μM HCA, 48 hrs, compared to DMSO; FIG. 2", "experimental": "as §1, §2"}, "[5]": {"test_system": "MDA-MB-231 breast cancer cells", "experiment": "Cancer cell migration assay in Boyden chamber", "assay_type": "cell-based", "conditions": "6 hrs, FIG. 3", "experimental": "Cultured MDA-MB-231 breast cancer cells were detached from culture dishes using a trypsin/EDTA solution (Gifco, USA), neutralized with trypsin inhibitor (0.5 mg/ml, Sigma, USA), and washed twice with culture medium. The cells were then counted using a hematocytometer. Cell migration was assayed using a Boyden chamber. HCA was added to a lower compartment of the Boyden chamber through holes with concentrations of 0 μM, 1 μM, 5 μM and 10 μM. After the lower compartment of the Boyden chamber was covered with a polycarbonate membrane (8 μm pore, Neuro Probe, Inc, USA), an upper compartment of the Boyden chamber was assembled with the lower compartment, and […] MDA-MB-231 cells were inoculated in the upper compartment through holes. After the Boyden chamber was incubated in an incubator for 6 hrs, the membrane was immersed in methanol to fix the cells. Then, the membrane was air-dried, stained with a 10% Girkmsa staining solution (Sigma, USA)for 1 hr, and destained with water for 10 sec. Herein, after non-migratedcells (an upper side of the membrane) were removed using a swab, migrated cells (a lower side of the membrane) were counted under a microscope."}},
  "data": [
    {"compound": "O=C/C=C/c1ccccc1O", "note": "[HCA, 2′-hydroxycinnamaldehyde]", "values": [
      {"measurement": "PARP cleavage", "setting": "[1]", "result": "a decrease in normal full-length PARP (116 kDa) and an increase in cleaved PARP (89 kDa)"},
      {"measurement": "DNA fragmentation by HCA", "setting": "[2]", "result": "fragmentation of chromosonal DNA into uniform DNA fragments"},
      {"measurement": "DNA fragmentation by HCA", "setting": "[3]", "result": "fragmentation of chromosonal DNA into uniform DNA fragments"},
      {"measurement": "PARP cleavage", "setting": "[4]", "result": "a decrease in normal full-length PARP (116 kDa) and an increase in cleaved PARP (89 kDa)"},
      {"measurement": "inhibition at 30 µM", "setting": "[5]; Homo sapiens, MDA-MB-231, at 30 μM", "result": "> 50", "unit": "%"},
      {"measurement": "inhibition of cell migration", "setting": "[5]; at 5 μM", "result": "inhibited cell migration"}
    ]}
  ]
}
